In patent US20200216417A1, “INHIBITORS OF FIBROBLAST ACTIVATION PROTEIN” (Praxis Biotech LLC, priority 2019, published 2020):
Read-outs that look alike come from different tables or passages of the source.

Legend:
[1] = target: T1, recombinant human DPP9 (rhDPP9) (Homo sapiens, UniProt Q86TI2); test: DPP9 inhibition assay, 10 ng rhDPP9, Tris-HCl/BSA buffer; assay type: biochemical; conditions: Table 3B
T1 construct: purchased R&S system / R&D systems (both sic) 5419-SE

[2] = target: T2, recombinant human PREP (rhPREP) (Homo sapiens, UniProt P48147); test: PREP enzymatic activity assay, Z-Gly-Pro-AMC; assay type: biochemical
T2 sequence (P48147 1-710): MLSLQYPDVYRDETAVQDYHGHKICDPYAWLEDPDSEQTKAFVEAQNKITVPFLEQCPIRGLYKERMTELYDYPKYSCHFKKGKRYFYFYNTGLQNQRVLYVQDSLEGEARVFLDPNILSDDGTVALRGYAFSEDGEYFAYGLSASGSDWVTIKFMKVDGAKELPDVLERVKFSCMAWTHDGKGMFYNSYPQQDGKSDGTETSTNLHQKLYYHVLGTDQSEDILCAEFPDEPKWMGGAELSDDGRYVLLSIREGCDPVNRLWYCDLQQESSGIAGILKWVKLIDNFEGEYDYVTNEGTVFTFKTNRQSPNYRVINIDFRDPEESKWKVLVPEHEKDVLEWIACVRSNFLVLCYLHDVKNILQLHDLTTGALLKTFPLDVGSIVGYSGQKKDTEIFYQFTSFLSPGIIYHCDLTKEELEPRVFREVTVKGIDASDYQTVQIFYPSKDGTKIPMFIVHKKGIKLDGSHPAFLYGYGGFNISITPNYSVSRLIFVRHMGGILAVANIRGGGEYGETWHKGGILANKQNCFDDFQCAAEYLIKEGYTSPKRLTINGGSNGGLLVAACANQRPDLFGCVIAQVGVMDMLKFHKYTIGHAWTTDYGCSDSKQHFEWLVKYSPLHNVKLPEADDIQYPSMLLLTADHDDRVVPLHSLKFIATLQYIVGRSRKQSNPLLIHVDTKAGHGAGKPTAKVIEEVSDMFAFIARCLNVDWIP

[3] = target: T3, recombinant human DPPIV (rhDPPIV) (Homo sapiens, UniProt P27487); test: DPPIV enzymatic activity assay, H-Gly-Pro-pNA; assay type: biochemical
T3 construct: purchased R&S system (so in the source)

[4] = target: T1, recombinant human DPP9 (rhDPP9); test: DPP9 enzymatic activity assay, 40 ng rhDPP9, HEPES buffer; assay type: biochemical; conditions: Table 3A
[5] = target: T4, recombinant human FAPα (rhFAPα) (Homo sapiens, UniProt Q12884); test: FAPα enzymatic exopeptidase (dipeptidase) activity assay, Z-Gly-Pro-AMC; assay type: biochemical; conditions: for inhibition at 1 µM / rhFAPα (% exo inh @ 1 μM): exopeptidase inhibition at 1 μM test compound
T4 construct: purchased R&S system (so in the source)
T4 sequence (Q12884 1-760): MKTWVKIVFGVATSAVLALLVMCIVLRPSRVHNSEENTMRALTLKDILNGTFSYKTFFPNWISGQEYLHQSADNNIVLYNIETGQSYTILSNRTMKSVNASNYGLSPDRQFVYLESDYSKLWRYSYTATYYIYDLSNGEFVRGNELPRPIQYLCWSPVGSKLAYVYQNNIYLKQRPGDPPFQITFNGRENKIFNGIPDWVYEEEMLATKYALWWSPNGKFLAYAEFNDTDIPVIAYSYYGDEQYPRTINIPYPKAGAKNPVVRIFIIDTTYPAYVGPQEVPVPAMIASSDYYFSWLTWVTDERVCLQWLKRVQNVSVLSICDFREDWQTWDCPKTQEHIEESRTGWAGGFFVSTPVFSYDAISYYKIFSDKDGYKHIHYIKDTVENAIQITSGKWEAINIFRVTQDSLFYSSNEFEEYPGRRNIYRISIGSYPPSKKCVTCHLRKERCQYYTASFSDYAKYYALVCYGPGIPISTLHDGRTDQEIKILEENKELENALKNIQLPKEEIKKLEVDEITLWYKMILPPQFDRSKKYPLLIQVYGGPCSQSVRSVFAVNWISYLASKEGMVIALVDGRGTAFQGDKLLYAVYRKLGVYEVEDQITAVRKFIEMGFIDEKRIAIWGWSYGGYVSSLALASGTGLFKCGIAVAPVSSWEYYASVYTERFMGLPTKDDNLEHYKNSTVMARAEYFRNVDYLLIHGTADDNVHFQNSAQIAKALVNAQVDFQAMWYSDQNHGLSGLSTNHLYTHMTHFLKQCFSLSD

[6] = test system: human AML cell line MV4-11; test: Cytotoxicity assay in human leukemia cell lines (Cell-Titer Glo); conditions: MV4-11, 48 h, read-out: MV4-11 viability IC50, μM
DPPIV = target: T5, DPPIV (Mus musculus, UniProt P28843); test: DPPIV enzymatic activity in mouse plasma (H-Gly-Pro-AMC); assay type: biochemical, C57BL/6 mouse; conditions: H-Gly-Pro-AMC substrate
T5 construct: from tissue; host or cells: C57BL/6 mouse plasma (EDTA)
Procedure: Approximately 500 μL of whole blood from one C57BL/6 mouse was harvested into BD Microtainer® tubes (K2) EDTA (#365974, Becton Dickinson and Co.) via terminal cardiac puncture. The blood sample was immediately centrifuged at approximately 9000 g at 4° C. for 5 minutes. Plasma was separated and stored at −80° C. in aliquots of 300 μL. To assay baseline DPPIV enzymatic exopeptidase activity, 5 μL of thawed, mouse plasma was diluted (1:5) in buffer (100 mM Tris-HCl, 400 mM NaCl, 50 mM salicylic acid, 1 mM EDTA, pH 7.5) and mixed with 35 μL of the same buffer before being pre-incubated with different concentrations of 10 μL of test compounds or DMSO vehicle for 15 minutes at 37° C. in 96-well black plates (Nunc, #237108). After pre-incubation, 50 μL of 200 μM dipeptide substrate H-Gly-Pro-AMC (Bachem, # L-1225) was added to the mixture. The assay was performed for 1 hour at 37° C. 7-Amino-4-Methylcoumarin (AMC) release was detected measuring fluorescence at an excitation wavelength of 360 nm and an emission wavelength of 460 nm using a Multifunction Microplate Reader (Synergy 4, Biotek). All measurements were carried out at least in duplicate.

[7] = Table 2, read-out: rhFAPα (% exo inh @ 1 μM)
[8] = Table 3B, read-out: rhFAPα % exo inh @ 1 μM
[9] = exopeptidase, Table 2, read-out: rhFAPα (exo IC50)
[10] = exopeptidase, Table 3A, read-out: rhFAPα (exo IC50)

T1 sequence (Q86TI2 whole entry): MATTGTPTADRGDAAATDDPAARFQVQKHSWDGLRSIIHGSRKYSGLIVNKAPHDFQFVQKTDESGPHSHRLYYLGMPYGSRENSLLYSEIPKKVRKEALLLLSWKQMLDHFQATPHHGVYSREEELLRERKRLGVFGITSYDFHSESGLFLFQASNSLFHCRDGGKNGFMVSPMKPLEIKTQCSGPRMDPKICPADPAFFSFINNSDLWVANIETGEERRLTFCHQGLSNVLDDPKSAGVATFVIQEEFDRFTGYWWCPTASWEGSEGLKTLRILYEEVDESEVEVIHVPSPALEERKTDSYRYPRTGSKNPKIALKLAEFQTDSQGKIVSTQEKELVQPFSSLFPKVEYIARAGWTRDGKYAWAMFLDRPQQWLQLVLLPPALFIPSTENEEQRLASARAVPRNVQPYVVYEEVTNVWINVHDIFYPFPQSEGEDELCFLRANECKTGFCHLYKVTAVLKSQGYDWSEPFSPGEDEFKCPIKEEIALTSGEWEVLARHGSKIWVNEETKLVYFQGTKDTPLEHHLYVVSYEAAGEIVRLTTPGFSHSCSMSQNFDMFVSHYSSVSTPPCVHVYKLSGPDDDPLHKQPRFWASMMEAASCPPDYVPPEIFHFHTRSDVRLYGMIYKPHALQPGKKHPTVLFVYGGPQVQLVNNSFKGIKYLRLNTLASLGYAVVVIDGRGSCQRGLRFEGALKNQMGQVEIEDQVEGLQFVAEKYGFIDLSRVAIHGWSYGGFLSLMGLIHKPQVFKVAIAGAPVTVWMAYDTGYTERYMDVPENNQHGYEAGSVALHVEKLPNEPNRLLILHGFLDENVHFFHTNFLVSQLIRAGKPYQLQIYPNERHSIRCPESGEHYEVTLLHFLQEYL
T3 sequence (P27487 whole entry): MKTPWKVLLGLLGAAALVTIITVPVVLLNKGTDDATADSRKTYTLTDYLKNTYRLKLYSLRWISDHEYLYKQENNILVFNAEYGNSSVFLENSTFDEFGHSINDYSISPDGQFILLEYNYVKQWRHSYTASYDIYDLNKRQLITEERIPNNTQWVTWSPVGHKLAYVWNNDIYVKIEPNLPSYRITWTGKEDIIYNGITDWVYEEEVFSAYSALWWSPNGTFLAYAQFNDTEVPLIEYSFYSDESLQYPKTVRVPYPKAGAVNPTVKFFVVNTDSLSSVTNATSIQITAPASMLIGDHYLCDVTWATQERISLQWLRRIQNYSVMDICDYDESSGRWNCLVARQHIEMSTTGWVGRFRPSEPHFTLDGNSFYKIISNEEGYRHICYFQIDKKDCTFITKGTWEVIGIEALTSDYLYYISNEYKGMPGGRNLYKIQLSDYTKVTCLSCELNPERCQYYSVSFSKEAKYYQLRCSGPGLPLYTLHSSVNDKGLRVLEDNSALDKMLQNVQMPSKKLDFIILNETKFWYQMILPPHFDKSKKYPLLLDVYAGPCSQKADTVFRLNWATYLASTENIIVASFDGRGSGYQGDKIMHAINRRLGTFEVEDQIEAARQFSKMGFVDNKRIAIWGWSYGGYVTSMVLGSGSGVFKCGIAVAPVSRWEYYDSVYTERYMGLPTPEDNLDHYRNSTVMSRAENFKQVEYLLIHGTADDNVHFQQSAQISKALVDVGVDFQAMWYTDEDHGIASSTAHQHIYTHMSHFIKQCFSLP
T5 sequence (P28843 37-760 limits assumed): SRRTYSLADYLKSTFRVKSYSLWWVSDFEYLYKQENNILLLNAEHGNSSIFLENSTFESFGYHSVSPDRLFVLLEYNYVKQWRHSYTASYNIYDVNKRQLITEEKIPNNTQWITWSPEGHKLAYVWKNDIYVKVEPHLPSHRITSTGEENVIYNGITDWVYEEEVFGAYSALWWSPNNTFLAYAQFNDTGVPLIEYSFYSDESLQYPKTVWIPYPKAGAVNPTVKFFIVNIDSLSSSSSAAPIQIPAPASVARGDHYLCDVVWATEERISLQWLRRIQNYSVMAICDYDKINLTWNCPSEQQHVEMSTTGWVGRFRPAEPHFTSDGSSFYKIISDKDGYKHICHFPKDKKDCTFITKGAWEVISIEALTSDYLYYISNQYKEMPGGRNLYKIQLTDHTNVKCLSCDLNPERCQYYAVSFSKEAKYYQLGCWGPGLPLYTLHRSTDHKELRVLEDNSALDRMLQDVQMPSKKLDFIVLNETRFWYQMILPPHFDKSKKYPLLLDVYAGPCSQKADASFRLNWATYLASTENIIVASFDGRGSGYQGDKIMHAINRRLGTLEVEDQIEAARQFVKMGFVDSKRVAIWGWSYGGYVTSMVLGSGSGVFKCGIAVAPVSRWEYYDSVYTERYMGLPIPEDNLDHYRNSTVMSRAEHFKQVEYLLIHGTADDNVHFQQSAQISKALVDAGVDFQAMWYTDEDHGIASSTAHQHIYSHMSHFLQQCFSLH

SMILES	IC50 [1] [nM]	IC50 ([2]; Table 3A) [nM]	IC50 ([2]; Table 3B) [nM]	IC50 ([3]; Table 3A) [nM]	IC50 ([3]; Table 3B) [nM]	IC50 [4] [nM]	IC50 ([5]; Table 3B, read-out: rhFAP IC50) [nM]	inhibition at 1 µM [5, 7] [%]	inhibition at 1 µM [5, 8] [%]	IC50 [5, 9] [nM]	IC50 [5, 10] [nM]	IC50 (DPPIV) [nM]	IC50 [6] [µM]	rhFAPα (% exo inh @ 1 μM) ([5]; Table 2)	rhFAPα (% exo inh @ 1 μM) ([5]; Table 3B)
N#C[C@@H]1CC(F)(F)CN1C(=O)CNC(=O)c1ccncc1/C=C/c1ccc(F)cc1 [Compound 12, (S,E)-N-(2-(2-cyano-4,4-difluoropyrrolidin-1-yl)-2-oxoethyl)-3-(4-fluorostyryl)isonicotinamide]	1000 to 10000	> 10000	> 10000	1000 to 10000	1000 to 10000	1000 to 10000	< 1000	> 50	> 50	< 1000	< 1000				
COc1ccc(/C=C/c2cnccc2C(=O)NCC(=O)N2CC(F)(F)C[C@H]2C#N)cc1 [Compound 15]	< 1000		> 10000		> 10000		< 1000		> 50				> 10		
N#C[C@@H]1CC(F)(F)CN1C(=O)CNC(=O)c1ccnc2ccc(/C=C/c3ccc(Cl)cc3)cc12 [Compound 34]	< 1000		> 10000		> 10000		< 1000		> 50				< 3		
Cc1ccc(/C=C/c2ccc3nccc(C(=O)NCC(=O)N4CC(F)(F)C[C@H]4C#N)c3c2)cn1 [Compound 45]	< 1000		> 10000		> 10000		< 1000		> 50				3 to 10		
COc1ccc(/C=C/c2ccc3nccc(C(=O)NCC(=O)N4CC(F)(F)C[C@H]4C#N)c3c2)cc1 [Compound 47]	< 1000		> 10000		> 10000		< 1000		> 50				3 to 10		
N#C[C@@H]1CC(F)(F)CN1C(=O)CNC(=O)c1ccnc2ccc(/C=C/c3ccc(O)nc3)cc12 [Compound 139]	< 1000		> 10000		> 10000		< 1000		> 50				> 10		
Cc1cc(/C=C/c2ccc3nccc(C(=O)NCC(=O)N4CC(F)(F)C[C@H]4C#N)c3c2)ccn1 [Compound 192]	< 1000		> 10000		1000 to 10000		< 1000		> 50				< 3		
N#C[C@@H]1CC(F)(F)CN1C(=O)CNC(=O)c1ccnc2ccc(/C=C/c3ccnc(C(F)(F)F)c3)cc12 [Compound 194]	< 1000		> 10000		1000 to 10000		< 1000		> 50				< 3		

The next lines start with results.

IC50 [1] [nM]	IC50 ([2]; Table 3A) [nM]	IC50 ([2]; Table 3B) [nM]	IC50 ([3]; Table 3A) [nM]	IC50 ([3]; Table 3B) [nM]	IC50 [4] [nM]	IC50 ([5]; Table 3B, read-out: rhFAP IC50) [nM]	inhibition at 1 µM [5, 7] [%]	inhibition at 1 µM [5, 8] [%]	IC50 [5, 9] [nM]	IC50 [5, 10] [nM]	IC50 (DPPIV) [nM]	SMILES	IC50 [6] [µM]	rhFAPα (% exo inh @ 1 μM) ([5]; Table 2)	rhFAPα (% exo inh @ 1 μM) ([5]; Table 3B)
1000 to 10000	1000 to 10000	1000 to 10000	> 10000	> 10000	1000 to 10000	< 1000	> 50	> 50	< 1000	< 1000		N#C[C@@H]1CC(F)(F)CN1C(=O)CNC(=O)c1ccncc1CCc1ccc(F)cc1 [Compound 11, (S)—N-(2-(2-cyano-4,4-difluoropyrrolidin-1-yl)-2-oxoethyl)-3-(4-fluorophenethyl)isonicotinamide]			
1000 to 10000	> 10000	> 10000	> 10000	> 10000	1000 to 10000	< 1000	> 50	> 50	< 1000	< 1000		C/C(=C\c1cnccc1C(=O)NCC(=O)N1CC(F)(F)C[C@H]1C#N)c1ccc(F)cc1 [Compound 13, (S,E)-N-(2-(2-cyano-4,4-difluoropyrrolidin-1-yl)-2-oxoethyl)-3-(2-(4-fluorophenyl)prop-1-en-1-yl)isonicotinamide]			
1000 to 10000		1000 to 10000	> 10000	> 10000	1000 to 10000	< 1000	> 50	> 50	< 1000	< 1000		C=C(Cc1cnccc1C(=O)NCC(=O)N1CC(F)(F)C[C@H]1C#N)c1ccc(F)cc1 [Compound 14, (S)—N-(2-(2-cyano-4,4-difluoropyrrolidin-1-yl)-2-oxoethyl)-3-(2-(4-fluorophenyl)allyl)isonicotinamide]			
< 1000		> 10000		1000 to 10000		< 1000		> 50				N#C[C@@H]1CC(F)(F)CN1C(=O)CNC(=O)c1ccncc1/C=C/c1ccc2cc(Cl)ccc2c1 [Compound 40]	3 to 10		
< 1000		> 10000		> 10000		< 1000		> 50				COc1ccc(C#Cc2ccc3nccc(C(=O)NCC(=O)N4CC(F)(F)C[C@H]4C#N)c3c2)cc1 [Compound 41]	> 10		
< 1000		> 10000		> 10000		< 1000		> 50				N#C[C@@H]1CC(F)(F)CN1C(=O)CNC(=O)c1ccnc2ccc(/C=C/c3ccc(F)cc3)cc12 [Compound 44]	< 3		
< 1000		> 10000		> 10000		< 1000		> 50				N#C[C@@H]1CC(F)(F)CN1C(=O)CNC(=O)c1ccnc2ccc(/C=C/c3ccc(C(F)(F)F)nc3)cc12 [Compound 46]	< 3		
< 1000		> 10000		> 10000		< 1000		> 50				COc1cc(/C=C/c2ccc3nccc(C(=O)NCC(=O)N4CC(F)(F)C[C@H]4C#N)c3c2)ccn1 [Compound 193]	< 3		
											< 10000	N#CC1CC(F)(F)CN1C(=O)CNC(=O)c1ccnc2ccccc12 (stereo not shown) [Ref. Comp., reference compound]		+++ (+++ refers to >50% inhibition at 1 μM test compound)	+++ (+++ refers to >50% inhibition at 1 μM test compound)
